Source: patent US7109174B2, “Anticonvulsant derivatives useful for preventing the development of type II diabetes mellitus and syndrome X” (Ortho-McNeil Pharmaceutical, Inc., priority 2000, dated 2006)

System: Female db/db mice
Test: Oral glucose tolerance test (fasted) in female db/db mice after 11 days oral dosing
Assay type: in vivo
Settings: for Oral Glucose Tolerance Test (fasted) Plasma Glucose: ± sem
Procedure: Female db/db mice (C57BLK S/J-m^+/^+ Lepr^db Jackson Labs, Bar Harbor, Me.), 7–8 weeks of age, were housed four per cage in solid-bottomed shoe box cages. Room temperature was maintained at 68–72° F. and humidity at 50–65%. Room lighting was on a 12-hour light/12-hour dark cycle. The mice were maintained on NIH Rat and Mouse/Auto 6F reduced fat diet #5K52 (PMI Nutrition Int'l Inc.). Food and water were supplied ad libitum.
Test compound and vehicle were dosed orally and prepared as suspensions in 0.5% hydroxypropylmethylcellulose (Dow Chemical, Midland, Mich.). The dosing volume was 10 mL/kg of body weight.
Different groups of female db/db mice (7–8/group) were orally gavaged daily for 11 days with either 0.5% methylcellulose in dH2O (vehicle), topiramate at 30 or 100 mg/kg/day or 2,3:4,5-bis-O-(1-methylethylidene)-β-L-fructopyranose sulfamate (hereinafter referred to as Compound V) at 30 or 100 mg/kg/day. On day 10, the animals were fasted for 20 hours before being tested for oral glucose tolerance (OGT). On day 11, four hours after the final dose for each group, an oral glucose tolerance test (OGTT) was performed by oral glucose administration of 2 g/kg. Animals were bled through tail clip at 0 (before glucose), 30, 60 and 120 min after glucose challenge. The blood samples were collected into heparinized CB microvettes and then put on ice. The plasma samples will be assayed for plasma glucose determination by using SIGMA DIAGNOSTICS Trinder reagent (Sigma, St. Louis, Mo.). Statistical analysis was performed using the program Instat (Graphpad, Monrovia, Calif.) and performing one-way ANOVA with a Dunnett's multiple comparison test.
Following the above described procedure, the effect of topiramate and compound V on oral glucose tolerance in female db/db mice, 7 mice/group, was determined, with results as listed in Table 9. The abbreviation N represents the number of animals per study group.

## CC1(C)O[C@H]2[C@H](CO[C@]3(COS(N)(=O)=O)OC(C)(C)O[C@H]23)O1 [Compound V, 2,3:4,5-bis-O-(1-methylethylidene)-β-L-fructopyranose sulfamate]
30 mg/kg/day, 0 min (before glucose 2 g/kg)
  Oral Glucose Tolerance Test (fasted) Plasma Glucose: 221 ± 22.9 mg/dL
30 mg/kg/day, 30 min after glucose 2 g/kg
  Oral Glucose Tolerance Test (fasted) Plasma Glucose: 441 ± 35.7 mg/dL
30 mg/kg/day, 60 min after glucose 2 g/kg
  Oral Glucose Tolerance Test (fasted) Plasma Glucose: 244 ± 21.6 mg/dL
30 mg/kg/day, 120 min after glucose 2 g/kg
  Oral Glucose Tolerance Test (fasted) Plasma Glucose: 213 ± 28.7 mg/dL
100 mg/kg/day, 0 min (before glucose 2 g/kg)
  Oral Glucose Tolerance Test (fasted) Plasma Glucose: 152 ± 27.3 mg/dL
100 mg/kg/day, 30 min after glucose 2 g/kg
  Oral Glucose Tolerance Test (fasted) Plasma Glucose: 449 ± 42.6 mg/dL
100 mg/kg/day, 60 min after glucose 2 g/kg
  Oral Glucose Tolerance Test (fasted) Plasma Glucose: 319 ± 52.7 mg/dL
100 mg/kg/day, 120 min after glucose 2 g/kg
  Oral Glucose Tolerance Test (fasted) Plasma Glucose: 153 ± 33 mg/dL
30 or 100 mg/kg/day
  elevated blood glucose levels induced by oral glucose challenge: suppressed
  fasting glucose levels: decreased
